test system: Rattus norvegicus; experiment: Average percentage HDLC change in 6 cholesterol cholic acid-fed male rats (versus control) after treatment for 8 days at a dose of 100 mg/kg/day; assay type: functional

Compound	HDL-C change [%]
O=C1c2ncccc2C(O)(c2ccc(Cl)cc2)C2=NCCN12 (stereo not drawn)	49
C[C@@H]1CN2C(=O)c3ccccc3C(O)(c3ccc(F)cc3)C2=N1 (single isomer, unassigned)	38
CC1(C)CN2C(=O)c3ccccc3C(O)(c3ccccc3)C2=N1 (stereo not drawn)	55
C[C@@H]1CN2C(=O)c3ccccc3[C@@](O)(c3ccc(F)cc3)C2=N1	105
O=C1c2ccccc2C(O)(c2ccc(F)cc2)C2=NC3(CCCC3)CN12 (stereo not drawn)	21
O=C1c2ccccc2C(O)(c2ccc(F)cc2)C2=NCCN12 (stereo not drawn)	0
CC1(C)CN2C(=O)c3ccccc3C(O)(c3ccc(F)cc3)C2=N1 (stereo not drawn)	90
O=C1c2ccccc2C(O)(c2ccc(F)cc2)C2=NCCCN12 (stereo not drawn)	22

From ChEMBL document CHEMBL1134163, “Design and synthesis of tricyclic derivatives as high density lipoprotein cholesterol enhancers” (2001)
